The test system of data set [1] is SW48 cells. The data set is described as follows: IC50 in SW48 cells. Type of data set: cell-based, human.
Data set [2] deals with SW48 xenograft model (human colorectal cancer). The data set is described as follows: Efficacy study in SW48 xenograft model, tumor growth inhibition. The class given is in vivo. The settings on record: irinotecan 50 mg/kg once/week for two weeks. How it is done:
Efficacy of Compound 3 was tested in an SW48 xenograft model (human colorectal cancer). Efficacies of the other compounds in Table 2 were also tested. All conjugates were dosed twice/week for two weeks.

Data set [3] is described as follows: Once/week MTD. As to conditions: in vivo.
A short description of data set [4]: Blood pressure study, tail cuff, 10 minute intravenous infusion. As to conditions: 400 nmol/kg infused over 10 minutes; significant drop = drop of at least 10%. The class given is in vivo, Sprague Dawley rats.
Procedure: An external pumping device was used to deliver the target dose volume for each animal over a 10 minute dosing interval. Blood pressure was measured by tail cuff using the CODA Non-Invasive Blood Pressure system. Animals were placed in restrainers with the tail cuff on. The animals and the restrainers were then placed on a heating pad for approximately 5 minutes. Following the 5 minute heating pad acclimation an additional acclimation data collection took place prior to dose initiation for approximately 5 minutes. Blood pressure data began at dose initiation and was collected through at least 30 minutes postdose. […] Test articles were infused over 10 minutes. The start and stop times for the following processes were documented. The following parameters were collected: diastolic pressure, systolic pressure, mean blood pressure, heart rate, tail blood flow, and tail blood volume.
Data set [5] is described as follows: In vivo half-life / NCA pharmacokinetics of albumin binding conjugates in rat plasma. On the set-up: species or system rats. As to conditions: for half-life: iv, 1 mg/kg. The protocol: Compound 3 and Compound 4 were administered to rats at 1 mg/kg via IV. […] Therefore, the concentration of Compound 3′ is measured after treating plasma samples at a low pH.

The conditions of data set [6]: transthyretin, 55 KDa serum protein, background statement; cited from earlier work.
Setting [7] is: Day 4, conjugates twice/week for two weeks (3, 4, 7, 8: 2.0 mg/kg; 5, 6: 0.025 mg/kg).
The mark [8] stands for this setting: Day 8, conjugates twice/week for two weeks (3, 4, 7, 8: 2.0 mg/kg; 5, 6: 0.025 mg/kg).
The mark [9] stands for this setting: Day 10, conjugates 2.0 mg/kg twice/week for two weeks.
[10] abbreviates: Day 14, conjugates 2.0 mg/kg twice/week for two weeks.
The mark [11] stands for this setting: Day 17, conjugates 2.0 mg/kg twice/week for two weeks.
Setting [12] is: Day 21, conjugates 2.0 mg/kg twice/week for two weeks.
Setting [13] is: in vivo, IV 1.0 mg/kg, plasma, measured as Compound 3′ after low pH treatment.

pIC50: −log10 of the molar value. Read-outs that look alike come from different tables or passages of the source.

In data set [1], `COc1ccc(C2=CN3C(=O)c4cc(OC)c(OCCCOc5cc6c(cc5OC)C(=O)N5C=C(c7ccc(NC(=O)[C@H](C)NC(=O)[C@@H](NC(=O)CCCCCN8C(=O)CC(SCCC(=O)NCCCC[C@H](NC(C)=O)C(=O)N9CCC[C@H]9C(=O)N[C@@H](CC(C)C)C(=O)N9CCC[C@H]9C(=O)N(C)[C@@H](CCCNC(=N)N)C(=O)N[C@H](C(=O)N[C@@H](CCCNC(=N)N)C(=O)N[C@@H](Cc9ccc(O)cc9)C(=O)O)C(C)(C)C)C8=O)C(C)C)cc7)C[C@H]5C=N6)cc4N=C[C@@H]3C2)cc1` (stereo partly drawn) [Compound 6] gave a pIC50 of 8.40. Besides, the TGI % is reported as 22.2% in data set [2] (setting [7]) and 28.3% in data set [2] (setting [8]). This compound yielded an MTD in data set [3] of 0.05 mg/kg.

As to `CCc1c2c(nc3ccc(OC(=O)N4CCC(N5CCCCC5)CC4)cc13)-c1cc3c(c(=O)n1C2)COC(=O)[C@]3(O)CC` [Irinotecan, irinotecan, reference compound], the TGI % stood at 10% in data set [2] (setting [8]); 12.8% in data set [2] (setting [9]); 33% in data set [2] (setting [10]); 34.9% in data set [2] (setting [11]); 33.9% in data set [2] (setting [12]). The same compound showed an MTD in data set [3] of 50 mg/kg.

Turning to `COc1cc2cc(c1Cl)N(C)C(=O)C[C@H](OC(=O)[C@H](C)N(C)C(=O)CCSC1CC(=O)N(CCCNC(=O)CNC(=O)[C@H](CC(C)C)NC(=O)[C@H](Cc3ccccc3)NC(=O)CNC(=O)CCC(=O)NCCCC[C@H](NC(=O)c3ccc(/C(C)=N/NC(=O)CCCCCN4C(=O)C=CC4=O)cc3)C(=O)N3CCC[C@H]3C(=O)N(C)[C@@H](CCCNC(=N)N)C(=O)N[C@@H](CCCNC(=N)N)C(=O)N3CCC[C@H]3C(=O)N[C@@H](Cc3ccc(O)cc3)C(=O)N[C@H](C(=O)N[C@@H](CC(C)C)C(=O)O)C(C)(C)C)C1=O)[C@]1(C)O[C@H]1[C@H](C)[C@@H]1C[C@@](O)(NC(=O)O1)[C@H](OC)/C=C/C=C(\C)C2` (stereo partly drawn) [Compound 3], in data set [4], the “mean blood pressure change” value was “no significant drop in mean blood pressure”. Besides, the “rat plasma half-life relative to Compound 4 (does not bind albumin)” value in data set [5] (IV 1 mg/kg) turned out to be 80 fold. For the same compound, in data set [5] (setting [13]), the AUC amounted to 33.7 µM·h, the AUC(0-inf) turned out to be 39.3 µM·h, the Cmax worked out at 4.69 µM and the clearance amounted to 0.16 mL/min/kg. In data set [5] (in vivo, IV 1.0 mg/kg, plasma, measured as Compound 3′ after low pH treatment, read-out: Vss), the Vd stood at 0.107 L/kg. For the same compound, the half-life in data set [5] (in vivo, IV 1.0 mg/kg, plasma, measured as Compound 3′ after low pH treatment of plasma samples, read-out: t½ (converted)) was 559 min. The half-life in data set [5] (in vivo, IV 1 mg/kg, read-out: rat plasma half-life (converted)) is 558 min. This compound yielded an MTD in data set [3] of 4 to 8 mg/kg.

With `COc1cc2cc(c1Cl)N(C)C(=O)C[C@H](OC(=O)[C@H](C)N(C)C(=O)CCSC1CC(=O)N(CCCNC(=O)CNC(=O)[C@H](CC(C)C)NC(=O)[C@H](Cc3ccccc3)NC(=O)CNC(=O)CCC(=O)NCCCC[C@H](NC(C)=O)C(=O)N3CCC[C@H]3C(=O)N(C)[C@@H](CCCNC(=N)N)C(=O)N[C@@H](CCCNC(=N)N)C(=O)N3CCC[C@H]3C(=O)N[C@@H](Cc3ccc(O)cc3)C(=O)N[C@H](C(=O)N[C@@H](CC(C)C)C(=O)O)C(C)(C)C)C1=O)[C@]1(C)O[C@H]1[C@H](C)[C@@H]1C[C@@](O)(NC(=O)O1)[C@H](OC)/C=C/C=C(\C)C2` (stereo partly drawn) [Compound 4], in data set [4], the “mean blood pressure change” value is on record as “significant drop in mean blood pressure”. Besides, in data set [5] (IV 1 mg/kg, FIG. 3), the “degradation in rat plasma compared with albumin bound Compound 3” value is “degraded faster”. The compound also showed a negative logarithm of the IC50 (pIC50) in data set [1] of 8.43. In data set [3], this compound returned an MTD of over 8 mg/kg.

As for `COc1ccc(C2=CN3C(=O)c4cc(OC)c(OCCCOc5cc6c(cc5OC)C(=O)N5C=C(c7ccc(NC(=O)[C@H](C)NC(=O)[C@@H](NC(=O)CCCCCN8C(=O)CC(SCCC(=O)NCCCC[C@H](NC(C)=O)C(=O)N9CCC[C@H]9C(=O)N(C)[C@@H](CCCNC(=N)N)C(=O)N[C@@H](CCCNC(=N)N)C(=O)N9CCC[C@H]9C(=O)N[C@@H](Cc9ccc(O)cc9)C(=O)N[C@H](C(=O)N[C@@H](CC(C)C)C(=O)O)C(C)(C)C)C8=O)C(C)C)cc7)C[C@H]5C=N6)cc4N=C[C@@H]3C2)cc1` (stereo partly drawn) [Compound 5], the pIC50 in data set [1] is 8.74. Also, the values for the TGI % in data set [2] (setting [7]) and in data set [2] (setting [8]) were 21.3% and 45.9%, respectively. In data set [3], this compound displayed an MTD of 0.05 mg/kg.

Take Transthyretin: the in vivo half-life result in data set [6] is reported as “around 48 h”.

As to `COc1cc2cc(c1Cl)N(C)C(=O)C[C@H](OC(=O)[C@H](C)N(C)C(=O)CCSC1CC(=O)N(CCCNC(=O)CNC(=O)[C@H](CC(C)C)NC(=O)[C@H](Cc3ccccc3)NC(=O)CNC(=O)CCC(=O)NCCCC[C@H](NC(C)=O)C(=O)N3CCC[C@H]3CN[C@@H](CC(C)C)C(=O)N3CCC[C@H]3C(=O)N(C)[C@@H](CCCNC(=N)N)C(=O)N[C@H](C(=O)N[C@@H](CCCNC(=N)N)C(=O)N[C@@H](Cc3ccc(O)cc3)C(=O)O)C(C)(C)C)C1=O)[C@]1(C)O[C@H]1[C@H](C)[C@@H]1C[C@@](O)(NC(=O)O1)[C@H](OC)/C=C/C=C(\C)C2` (stereo partly drawn) [Compound 7], the TGI % is −11% in data set [2] (setting [7]); −22.6% in data set [2] (setting [8]); −29.7% in data set [2] (setting [9]); −32% in data set [2] (setting [10]); −48.3% in data set [2] (setting [11]); −52.8% in data set [2] (setting [12]). Further, the MTD in data set [3] is over 8 mg/kg.

As usually defined, the pIC50 is the IC50 on a negative log10 scale, so that one unit is a factor of ten. High values mean a small IC50, low ones a large IC50. One may read the AUC as the area under the concentration-time curve, a measure of exposure. Higher therefore signals more exposure. For orientation: AUC(0-inf) means total exposure, with the tail of the curve extrapolated. By Cmax is commonly meant the highest concentration seen after dosing. In general, clearance refers to the rate of elimination divided by the concentration. Lower therefore signals a low capacity for elimination.
